{
  "source": "patent US20090305994A1",
  "about": "“Compounds Modulating Vegf Receptor and Uses Thereof” (priority 2005, published 2009)",
  "key": {"[1]": {"tested_on": "BAEC", "experiment": "Cells proliferation assay (cell number)", "type": "cell-based, bovine", "conditions": "24 hours", "method": "(§1) Effect of QK on cell proliferation. a) DNA synthesis. BAEC were incubated in DMEM with [^3H]-thymidine and QK in absence or in presence of VEGF165 (100 ng/ml). After 24 hours cells were fixed and lysed. Scintillation liquid was added and [^3H]-thymidine incorporation was evaluated. b) Cell proliferation. BAEC were stimulated with the indicated amount of QK in absence or in presence of VEGF165 (100 ng/ml). Cell number was determined at 24 hours after stimulation. c) RB phosphorylation. p-RB was evaluated at 12 and 18 hours after stimulation with QK (10^-6M), VEGF165 (100 ng/ml) and VEGF 15 (10^−6 M).\n(§2) Cells proliferation assay. Cells were seeded at a density of 10000 per well in six well plates, serum starved overnight and then stimulated with QK (10-12 to 10^−6 M) in absence or in presence of VEGF165. Cell number was determined at 24 hours after stimulation. The p-RB, was evaluated by western blot 12 and 18 hours after stimulation with QK (10^−6 M), VEGF165 and VEGF 15 (10^−6 M)."}, "[2]": {"tested_on": "RB", "experiment": "RB phosphorylation (western blot)", "type": "cell-based, bovine", "conditions": "12 and 18 hours; QK 10^-6 M, VEGF165 100 ng/ml, VEGF 15 10^-6 M", "method": "as §1, §2"}, "[3]": {"tested_on": "WKY rats", "experiment": "Implanted Matrigel model in rats", "type": "in vivo, rat", "conditions": "subcutaneous plug, one week", "method": "Implanted Matrigel Model in rats. Each animals was subcutaneously injected with 1 mL Matrigel Matrix High (18-22 mg/mL; Becton Dickinson, Franklin Lakes, N.J.) containing QK, VEGF 15, VEGF 165 (10^-6 M) or saline solution on the back. One week later, Matrigel plugs were removed and fixed in 4% buffered formaldehyde in PBS for histologic analysis using Masson trichrome staining. The capillary-occupied area per field of view from 15 to 20 fields in tissue sections was measured using a computerized digital camera system (Olympus, Melville, N.Y.) and NIH Image 1.61 (NIH, Bethesda, Md.).\nWe evaluated the proangiogenic effects of QK in vivo using a subcutaneous injection of Matrigel Matrix High (BD Technologies) […] (VEGF 15 10^-7 M), in anesthetized twelve-week-old WKY rats. After one week the plugs were removed and analyzed in gross morphology and capillaries infiltration by CD31/vWF immunostaining. […] After 14 days animals were anesthetized and hindlimbs blood flow (BF) assessed by digital angiographies counting the TIMI Frame score (TFC) needs to the contrast to arrive at the artery dorsal paw (FIG. 5a). BF was also evaluated by dyed beads dilution through injection in abdominal aorta of yellow beads ([…]) (FIG. 5b). By histology on the ischemic and non ischemic anterior tibial muscle, we evaluated capillary density."}, "[4]": {"tested_on": "HUVEC", "experiment": "Analysis of caspase 3 activity in HUVEC deprived of FBS", "type": "cell-based, human", "conditions": "4 h", "method": "HUVE cells (1×10^4/cm2) were incubated in medium without FBS, in the absence or presence of VEGF (20 ng/ml) and QK (5 ng/ml), at 37° C. in a 5% CO2 atmosphere. After 4 h, caspase 3 activity was determined. Results are expressed as mean values of triplicates.\nHUVE cells (1×10^4/cm2) were incubated in medium without FBS, in the absence or presence of VEGF (20 ng/ml) and the indicated peptides (20 ng/ml), at 37° C. in a 5% CO2 atmosphere. After 4 h, caspase 3 activity was determined. Results are expressed as mean values of triplicates.\n(§3) Analysis of caspase 3 activity—Cells (2×104) were lysed in a buffer containing Hepes 50 mM, DTT 1 mM, EDTA 0.1 mM, NP-40 0.1%, CHAPS 0.1% and protein quantitation determined. Protein aliquots (20 μg) were incubated with 20 μM Ac-DEVD-AMC (Pharmingen, San Diego, Calif.) in a buffer containing Hepes 50 mM, DTT 1 mM, EDTA 0.1 mM, NP-40 0.1%, CHAPS 0.1%, at 37° C. for 3 h. Caspase 3 activity was determined in the cytosolic extracts by analysing the release of 7-amino-4-methylcoumarin (AMC) from N-acetyl-DEVD-AMC (Thornberry N A, et al. Nature 1992; 356:768-74); the release of AMC was monitored in a spectrofluorometer with an excitation wavelength of 380 nm and emission wavelength of 440 nm.\nas §3, with “356: 768-74);” for “356:768-74);”"}},
  "data": [
    {"sequence": "KLTWQELYQLKYKGI [QK]", "values": [
      {"measurement": "cell proliferation (cell number)", "setting": "[1]; peptide alone", "value": "produces cell proliferation per se"},
      {"measurement": "cell proliferation in presence of VEGF", "setting": "[1]; with VEGF165 100 ng/ml", "value": "enhances VEGF response"},
      {"measurement": "phosphorylation of the cyclin RB", "setting": "[2]", "value": "enhanced phosphorylation of the cyclin RB"},
      {"measurement": "Matrigel plug gross morphology (macroscopic inspection)", "setting": "[3]", "value": "contained blood"},
      {"measurement": "peripheral capillaries infiltration of Matrigel plugs", "setting": "[3]; versus VEGF 15 plugs", "value": "greater peripheral capillaries infiltration"},
      {"measurement": "rescue from apoptosis in presence of VEGF (caspase 3)", "setting": "[4]; QK 5 ng/ml with VEGF 20 ng/ml", "value": "enhanced the response of HUVEC to VEGF"},
      {"measurement": "rescue of HUVEC from apoptosis (caspase 3 activation)", "setting": "[4]; VEGF 20 ng/ml, QK 5 ng/ml", "value": "showed a biological effect similar to VEGF"}
    ]}
  ]
}
